Read-outs that look alike come from different tables or passages of the source.
How the values were obtained:
[1] = system: LNCaP prostate cancer cell; assay: LNCaP cell viability (CellTiter-Glo); assay type: cell-based; conditions: Homo sapiens, 72 h, LNCaP cell viability, 3 days, CellTiter-Glo
Outline: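 CellTiter-Glo luminescence measured three days after dosing with a 12-point 3-fold compound dilution series. LNCaP cells seeded at 5000/well in RPMI 1640 with 10% FBS; data normalized to untreated controls and IC50 fitted by nonlinear least-squares regression.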

P300 = P300 (Homo sapiens, UniProt Q09472); assay: percentage of inhibition (degradation) of p300 at 10 nM, Tables 2-4; assay type: cell-based; design: LNCaP or 22RV1 cells that express CBP/P300 proteins were treated with GNE-781 or the bivalent compounds; endogenous in cells; host or cells: LNCaP or 22RV1 (not given); conditions: for inhibition at 0.01 µM: read-out: Degradation (10 nM); for Degradation (10 nM): Table 3
P300, sequence (Q09472 whole entry): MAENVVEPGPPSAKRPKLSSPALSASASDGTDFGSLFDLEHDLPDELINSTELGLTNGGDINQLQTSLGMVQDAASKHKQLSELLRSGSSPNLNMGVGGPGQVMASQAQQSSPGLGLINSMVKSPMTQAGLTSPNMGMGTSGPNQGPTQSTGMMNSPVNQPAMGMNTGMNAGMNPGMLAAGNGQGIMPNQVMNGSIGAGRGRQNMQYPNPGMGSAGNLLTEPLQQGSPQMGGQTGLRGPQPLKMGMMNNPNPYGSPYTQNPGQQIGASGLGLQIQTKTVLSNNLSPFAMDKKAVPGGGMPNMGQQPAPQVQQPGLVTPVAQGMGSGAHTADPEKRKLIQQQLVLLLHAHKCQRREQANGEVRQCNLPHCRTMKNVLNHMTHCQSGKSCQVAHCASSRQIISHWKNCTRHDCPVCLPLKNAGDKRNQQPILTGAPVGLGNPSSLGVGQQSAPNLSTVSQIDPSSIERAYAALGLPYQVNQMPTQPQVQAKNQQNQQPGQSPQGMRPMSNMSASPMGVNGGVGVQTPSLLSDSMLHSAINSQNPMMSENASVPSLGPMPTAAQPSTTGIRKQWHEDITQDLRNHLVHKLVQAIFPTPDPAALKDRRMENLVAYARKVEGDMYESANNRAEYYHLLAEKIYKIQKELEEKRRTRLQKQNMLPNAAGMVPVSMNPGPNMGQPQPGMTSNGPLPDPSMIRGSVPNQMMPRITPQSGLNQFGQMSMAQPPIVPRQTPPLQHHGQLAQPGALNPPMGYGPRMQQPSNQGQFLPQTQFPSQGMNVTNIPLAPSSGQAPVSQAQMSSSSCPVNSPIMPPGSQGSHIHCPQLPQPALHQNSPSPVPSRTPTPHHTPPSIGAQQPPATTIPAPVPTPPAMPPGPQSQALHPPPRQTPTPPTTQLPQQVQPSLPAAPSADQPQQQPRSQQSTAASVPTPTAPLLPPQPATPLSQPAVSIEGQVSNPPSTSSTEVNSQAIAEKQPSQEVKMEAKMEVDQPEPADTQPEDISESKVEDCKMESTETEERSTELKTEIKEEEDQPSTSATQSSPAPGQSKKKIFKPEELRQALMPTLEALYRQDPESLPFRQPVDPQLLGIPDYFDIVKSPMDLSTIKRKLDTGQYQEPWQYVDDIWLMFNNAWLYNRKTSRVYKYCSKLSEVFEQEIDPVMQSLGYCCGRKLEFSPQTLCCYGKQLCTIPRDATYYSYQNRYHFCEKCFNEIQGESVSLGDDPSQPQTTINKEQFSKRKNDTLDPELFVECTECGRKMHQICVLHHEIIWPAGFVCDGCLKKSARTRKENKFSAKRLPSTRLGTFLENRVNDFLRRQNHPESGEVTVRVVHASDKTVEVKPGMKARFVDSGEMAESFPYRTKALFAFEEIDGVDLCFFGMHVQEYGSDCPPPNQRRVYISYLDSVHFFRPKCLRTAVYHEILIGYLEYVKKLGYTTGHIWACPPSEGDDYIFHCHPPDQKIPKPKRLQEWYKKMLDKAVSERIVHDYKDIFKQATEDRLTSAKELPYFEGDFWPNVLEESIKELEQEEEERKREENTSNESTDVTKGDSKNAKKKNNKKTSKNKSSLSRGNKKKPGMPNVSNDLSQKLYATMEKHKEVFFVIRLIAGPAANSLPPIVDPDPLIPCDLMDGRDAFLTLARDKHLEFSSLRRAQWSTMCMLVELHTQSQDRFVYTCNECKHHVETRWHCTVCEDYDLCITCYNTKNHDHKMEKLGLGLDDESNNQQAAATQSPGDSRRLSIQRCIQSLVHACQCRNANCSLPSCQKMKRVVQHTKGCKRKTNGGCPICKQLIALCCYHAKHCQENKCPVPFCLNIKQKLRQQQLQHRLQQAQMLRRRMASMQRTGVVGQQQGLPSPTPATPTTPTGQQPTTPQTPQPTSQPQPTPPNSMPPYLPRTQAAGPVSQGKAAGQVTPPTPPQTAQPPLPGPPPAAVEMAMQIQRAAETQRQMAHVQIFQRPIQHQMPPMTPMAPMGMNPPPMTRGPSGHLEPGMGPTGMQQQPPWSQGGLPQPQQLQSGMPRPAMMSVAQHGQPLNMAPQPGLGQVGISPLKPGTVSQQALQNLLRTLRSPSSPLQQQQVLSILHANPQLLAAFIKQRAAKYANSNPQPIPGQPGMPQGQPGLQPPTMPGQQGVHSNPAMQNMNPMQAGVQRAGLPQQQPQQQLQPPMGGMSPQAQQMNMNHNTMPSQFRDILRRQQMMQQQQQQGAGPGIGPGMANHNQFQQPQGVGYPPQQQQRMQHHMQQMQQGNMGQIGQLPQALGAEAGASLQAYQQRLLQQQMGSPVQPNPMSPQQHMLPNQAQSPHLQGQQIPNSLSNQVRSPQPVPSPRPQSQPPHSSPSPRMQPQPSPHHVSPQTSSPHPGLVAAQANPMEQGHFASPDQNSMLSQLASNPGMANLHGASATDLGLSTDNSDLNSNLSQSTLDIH
Description: Cultured cells or tissue chunks were washed with cold PBS once and lysed in cold RIPA buffer supplemented with protease inhibitors and phosphatase inhibitors (Beyotime Biotechnology). The solutions were then incubated at 4° C. for 30 minutes with gentle agitation to fully lyse cells. Cell lysates were centrifuged at 13,000 rpm for 10 minutes at 4° C. and pellets were discarded. Total protein concentrations in the lysates were determined by BCA assays (Beyotime Biotechnology). Cell lysates were mixed with Laemmli loading buffer to 1 X and heated at 99° C. for 5 min. Proteins were resolved on SDS-PAGE and visualized by chemiluminescence. Images were taken by a ChemiDoc MP Imaging system (Bio-Rad). Protein bands were quantitated using the accompanied software provided by Bio-Rad.

Row | IC50 ([1]; Table 4) [nM] | inhibition at 0.01 µM (P300; p300, 10 nM, Table 4) [%] | Structure (SMILES) | inhibition at 0.01 µM (P300) [%] | IC50 ([1]; Table 3) [nM] | Degradation (10 nM) (P300; p300, 10 nM)
1 | 18.2 | 50 to 80 | CC(=O)N1CCc2c(c(N3CCCc4cc(-c5cnn(C)c5)c(C(F)F)cc43)nn2C2CCN(C(=O)CCN3CCN(CC#Cc4ccc5c(c4)n(C)c(=O)n5C4CCC(=O)NC4=O)CC3)CC2)C1 (centres unmarked) [P-233, 3-(5-(3-(4-(3-(4-(5-Acetyl-3-(7-(difluoromethyl)-6-(1-methyl-1H-pyrazol-4-yl)-3,4-dihydroquinolin-1(2H)-yl)-4,5,6,7-tetrahydro-1H-pyrazolo[4,3-c]pyridin-1-yl)piperidin-1-yl)-3-oxopropyl)piperazin-1-yl)prop-1-yn-1-yl)-3-methyl-2-oxo-2,3-dihydro-1H-benzo[d]imidazol-1-yl)piperidine-2,6-dione] |  |  | 
2 | 1.3 | > 80 | CC(=O)N1CCc2c(c(N3CCCc4cc(-c5cnn(C)c5)c(C(F)F)cc43)nn2C2CCN(C(=O)CCN3CCC(C#Cc4cccc5c4n(C)c(=O)n5C4CCC(=O)NC4=O)CC3)CC2)C1 (centres unmarked) [P-231, 3-(4-((1-(3-(4-(5-acetyl-3-(7-(difluoromethyl)-6-(1-methyl-1H-pyrazol-4-yl)-3,4-dihydroquinolin-1(2H)-yl)-4,5,6,7-tetrahydro-1H-pyrazolo[4,3-c]pyridin-1-yl)piperidin-1-yl)-3-oxopropyl)piperidin-4-yl)ethynyl)-3-methyl-2-oxo-2,3-dihydro-1H-benzo[d]imidazol-1-yl)piperidine-2,6-dione] |  |  | 
3 | 43.4 | 50 to 80 | CC(=O)N1CCc2c(c(N3CCCc4cc(-c5cnn(C)c5)c(C(F)F)cc43)nn2C2CCN(C(=O)CCCN3CCN(CCCc4cccc5c4n(C)c(=O)n5C4CCC(=O)NC4=O)CC3)CC2)C1 (centres unmarked) [P-225, 3-(4-(3-(4-(4-(4-(5-Acetyl-3-(7-(difluoromethyl)-6-(1-methyl-1H-pyrazol-4-yl)-3,4-dihydroquinolin-1(2H)-yl)-4,5,6,7-tetrahydro-1H-pyrazolo[4,3-c]pyridin-1-yl)piperidin-1-yl)-4-oxobutyl)piperazin-1-yl)propyl)-3-methyl-2-oxo-2,3-dihydro-1H-benzo[d]imidazol-1-yl)piperidine-2,6-dione] |  |  | 
4 | 15.5 | 50 to 80 | CC(=O)N1CCc2c(c(N3CCCc4cc(-c5cnn(C)c5)c(C(F)F)cc43)nn2C2CCN(C(=O)CN3CCN(CCCc4ccc5c(c4)n(C)c(=O)n5C4CCC(=O)NC4=O)CC3)CC2)C1 (centres unmarked) [P-220, 3-(5-(3-(4-(2-(4-(5-Acetyl-3-(7-(difluoromethyl)-6-(1-methyl-1H-pyrazol-4-yl)-3,4-dihydroquinolin-1(2H)-yl)-4,5,6,7-tetrahydro-1H-pyrazolo[4,3-c]pyridin-1-yl)piperidin-1-yl)-2-oxoethyl)piperazin-1-yl)propyl)-3-methyl-2-oxo-2,3-dihydro-1H-benzo[d]imidazol-1-yl)piperidine-2,6-dione] |  |  | 
5 | 81.1 | 20 to 50 | CC(=O)N1CCc2c(c(N3CCCc4cc(-c5cnn(C)c5)c(C(F)F)cc43)nn2C2CCN(C(=O)CCN3CCN(CC#Cc4cccc5c4n(C)c(=O)n5C4CCC(=O)NC4=O)CC3)CC2)C1 (centres unmarked) [P-238, 3-(4-(3-(4-(3-(4-(5-Acetyl-3-(7-(difluoromethyl)-6-(1-methyl-1H-pyrazol-4-yl)-3,4-dihydroquinolin-1(2H)-yl)-4,5,6,7-tetrahydro-1H-pyrazolo[4,3-c]pyridin-1-yl)piperidin-1-yl)-3-oxopropyl)piperazin-1-yl)prop-1-yn-1-yl)-3-methyl-2-oxo-2,3-dihydro-1H-benzo[d]imidazol-1-yl)piperidine-2,6-dione] |  |  | 

The remaining lines, values behind:

Row | Structure (SMILES) | IC50 ([1]; Table 4) [nM] | inhibition at 0.01 µM (P300; p300, 10 nM, Table 4) [%] | inhibition at 0.01 µM (P300) [%] | IC50 ([1]; Table 3) [nM] | Degradation (10 nM) (P300; p300, 10 nM)
6 | CC(=O)N1CCc2c(c(N3CCCc4cc(-c5cnn(C)c5)c(C(F)F)cc43)nn2C2CCN(CCN3CCOC(CNc4cccc5c4C(=O)N(C4CCC(=O)NC4=O)C5)C3)CC2)C1 (centres unmarked) [P-198, 3-(7-(((4-(2-(4-(5-acetyl-3-(7-(difluoromethyl)-6-(1-methyl-1H-pyrazol-4-yl)-3,4-dihydroquinolin-1(2H)-yl)-4,5,6,7-tetrahydro-1H-pyrazolo[4,3-c]pyridin-1-yl)piperidin-1-yl)ethyl)morpholin-2-yl)methyl)amino)-1-oxoisoindolin-2-yl)piperidine-2,6-dione] | 2.4 |  | > 80 |  | 
7 | CC(=O)N1CCc2c(c(N3CCCc4cc(-c5cnn(C)c5)c(C(F)F)cc43)nn2C2CCN(C(=O)CCN3CCC(Cn4c(=O)n(C5CCC(=O)NC5=O)c5ccccc54)CC3)CC2)C1 (centres unmarked) [P-205, 3-(3-((1-(3-(4-(5-acetyl-3-(7-(difluoromethyl)-6-(1-methyl-1H-pyrazol-4-yl)-3,4-dihydroquinolin-1(2H)-yl)-4,5,6,7-tetrahydro-1H-pyrazolo[4,3-c]pyridin-1-yl)piperidin-1-yl)-3-oxopropyl)piperidin-4-yl)methyl)-2-oxo-2,3-dihydro-1H-benzo[d]imidazol-1-yl)piperidine-2,6-dione] | 158 | < 20 |  |  | 
8 | CC(=O)N1CCc2c(c(N3CCCc4cc(-c5cnn(C)c5)c(C(F)F)cc43)nn2C2CCN(C(=O)CCCCCCCCn3c(=O)n(C4CCC(=O)NC4=O)c4ccccc43)CC2)C1 (centres unmarked) [P-163, 3-(3-(9-(4-(5-acetyl-3-(7-(difluoromethyl)-6-(1-methyl-1H-pyrazol-4-yl)-3,4-dihydroquinolin-1(2H)-yl)-4,5,6,7-tetrahydro-1H-pyrazolo[4,3-c]pyridin-1-yl)piperidin-1-yl)-9-oxononyl)-2-oxo-2,3-dihydro-1H-benzo[d]imidazol-1-yl)piperidine-2,6-dione] |  |  |  | 0.9 | A (A: Degradation ≥ 80%)
9 | CC(=O)N1CCc2c(c(N3CCCc4cc(-c5cnn(C)c5)c(C(F)F)cc43)nn2C2CCN(CCN3CCC(CNc4cccc5c4C(=O)N(C4CCC(=O)NC4=O)C5=O)CC3)CC2)C1 (centres unmarked) [P-143, 4-(((1-(2-(4-(5-acetyl-3-(7-(difluoromethyl)-6-(1-methyl-1H-pyrazol-4-yl)-3,4-dihydroquinolin-1(2H)-yl)-4,5,6,7-tetrahydro-1H-pyrazolo[4,3-c]pyridin-1-yl)piperidin-1-yl)ethyl)piperidin-4-yl)methyl)amino)-2-(2,6-dioxopiperidin-3-yl)isoindoline-1,3-dione] |  |  |  | 1.5 | A (A: Degradation ≥ 80%)
10 | CC(=O)N1CCc2c(c(N3CCCc4cc(-c5cnn(C)c5)c(C(F)F)cc43)nn2C2CCN(CCN3CCC(C#Cc4cccc5c4n(C)c(=O)n5C4CCC(=O)NC4=O)CC3)CC2)C1 (centres unmarked) [P-251, 3-(4-((1-(2-(4-(5-acetyl-3-(7-(difluoromethyl)-6-(1-methyl-1H-pyrazol-4-yl)-3,4-dihydroquinolin-1(2H)-yl)-4,5,6,7-tetrahydro-1H-pyrazolo[4,3-c]pyridin-1-yl)piperidin-1-yl)ethyl)piperidin-4-yl)ethynyl)-3-methyl-2-oxo-2,3-dihydro-1H-benzo[d]imidazol-1-yl)piperidine-2,6-dione] | 0.1 |  | > 80 |  | 
11 | CC(=O)N1CCc2c(c(N3CCCc4cc(-c5cnn(C)c5)c(C(F)F)cc43)nn2C2CCN(C(=O)CCN3CCC(C#Cc4ccc5c(c4)n(C)c(=O)n5C4CCC(=O)NC4=O)CC3)CC2)C1 (centres unmarked) [P-212, 3-(5-((1-(3-(4-(5-acetyl-3-(7-(difluoromethyl)-6-(1-methyl-1H-pyrazol-4-yl)-3,4-dihydroquinolin-1(2H)-yl)-4,5,6,7-tetrahydro-1H-pyrazolo[4,3-c]pyridin-1-yl)piperidin-1-yl)-3-oxopropyl)piperidin-4-yl)ethynyl)-3-methyl-2-oxo-2,3-dihydro-1H-benzo[d]imidazol-1-yl)piperidine-2,6-dione] | 5.5 | > 80 |  |  | 
12 | CC(=O)N1CCc2c(c(N3CCCc4cc(-c5cnn(C)c5)c(C(F)F)cc43)nn2C2CCN(CCN3CCC(C4CN(c5cccc6c5C(=O)N(C5CCC(=O)NC5=O)C6=O)C4)CC3)CC2)C1 (centres unmarked) [P-187, 4-(3-(1-(2-(4-(5-acetyl-3-(7-(difluoromethyl)-6-(1-methyl-1H-pyrazol-4-yl)-3,4-dihydroquinolin-1(2H)-yl)-4,5,6,7-tetrahydro-1H-pyrazolo[4,3-c]pyridin-1-yl)piperidin-1-yl)ethyl)piperidin-4-yl)azetidin-1-yl)-2-(2,6-dioxopiperidin-3-yl)isoindoline-1,3-dione] | 2.3 |  | > 80 |  | 
13 | CC(=O)N1CCc2c(c(N3CCCc4cc(-c5cnn(C)c5)c(C(F)F)cc43)nn2C2CCN(CCCN3CCC(CNc4cccc5c4C(=O)N(C4CCC(=O)NC4=O)C5=O)CC3)CC2)C1 (centres unmarked) [P-193, 4-(((1-(3-(4-(5-acetyl-3-(7-(difluoromethyl)-6-(1-methyl-1H-pyrazol-4-yl)-3,4-dihydroquinolin-1(2H)-yl)-4,5,6,7-tetrahydro-1H-pyrazolo[4,3-c]pyridin-1-yl)piperidin-1-yl)propyl)piperidin-4-yl)methyl)amino)-2-(2,6-dioxopiperidin-3-yl)isoindoline-1,3-dione] | 3.2 | > 80 |  |  | 

From patent US20240100170A1, “CYCLIC-AMP RESPONSE ELEMENT BINDING PROTEIN (CBP) AND/OR ADENOVIRAL E1A BINDING PROTEIN OF 300 KDA (P300) DEGRADATION COMPOUNDS AND METHODS OF USE” (CULLGEN (SHANGHAI), INC., priority 2020, published 2024)
